Test: wn = mass fraction of the nth substance listed
Settings: 101 kPa, Liquid; for viscosity: Concentric cylinders viscometry; for mass density: Vibrating tube method

CC(O)CN (stereo not given) [1-amino-2-propanol] + O
Settings | mass density, w1 = 0.05 [kg/m3] | mass density, w1 = 0.1 [kg/m3] | mass density, w1 = 0.15 [kg/m3] | mass density, w1 = 0.2 [kg/m3] | mass density, w1 = 0.25 [kg/m3] | viscosity, w1 = 0.05 [mPa·s] | viscosity, w1 = 0.1 [mPa·s] | viscosity, w1 = 0.15 [mPa·s] | viscosity, w1 = 0.2 [mPa·s] | viscosity, w1 = 0.25 [mPa·s]
298.15 K | 998.574 | 999.182 | 999.932 | 1001.03 | 1002.46 | 1.088 | 1.296 | 1.569 | 1.944 | 2.444
303.15 K | 997.087 | 997.57 | 998.142 | 999.018 | 1000.2 | 0.9733 | 1.148 | 1.372 | 1.678 | 2.083
308.15 K | 995.386 | 995.747 | 996.159 | 996.833 | 997.78 | 0.8761 | 1.027 | 1.215 | 1.468 | 1.799
313.15 K | 993.483 | 993.738 | 994.005 | 994.489 | 995.218 | 0.7937 | 0.9275 | 1.084 | 1.295 | 1.574
318.15 K | 991.399 | 991.552 | 991.681 | 991.989 | 992.514 | 0.7225 | 0.8362 | 0.9756 | 1.155 | 1.384
323.15 K | 989.143 | 989.197 | 989.197 | 989.338 | 989.679 | 0.6617 | 0.7617 | 0.8864 | 1.039 | 1.231
328.15 K | 986.722 | 986.682 | 986.564 | 986.546 | 986.711 | 0.6112 | 0.6988 | 0.8113 | 0.943 | 1.102
333.15 K | – | – | – | – | – | 0.5696 | 0.647 | 0.75 | 0.8659 | 0.9934
